# Measurements taken from patent US20070098732A1, “Immunologic compounds for prevention, protection, prophylaxis or treatment of immunological disorders, infections and cancer” (Universite De Montreal, priority 2003, published 2007).
# Test system: EL-4 lymphoma cells
# Test: PDT of EL-4 lymphoma cells with TH9402 and light
# Type: cell-based
# Procedure: The strain of mice B6SJL was used for the evaluation of PDT to induce immuno-protection. In generation of tumor cell lysates, EL-4 cells (American Type Culture Collection, ATCC Accession # TIB-39) were seeded in flasks at 10^6 cells/ml and exposed to 10 μM TH9402 in serum free DMEM without phenol red medium for 40 minutes, followed by exposure to drug-free medium for 90 minutes, then illuminated with a dose of 10J/cm^2. Treated cells were incubated overnight. After incubation, cells and supernatants were collected and spun down. The resulting supernatant was collected, concentrated by vacuum speed using a molecular sieve (centriplus 3000 molecular weight cut-off), and stored frozen at −70° C. until use.
compound,measurement,value
"Br.COC(=O)c1ccccc1-c1c2ccc(=N)c(Br)c-2oc2c(Br)c(N)ccc12 [TH9402, 2′-(6-amino-4,5-dibromo-3-imino-3H-xanthen-9-yl)-benzoic acid methyl ester hydrobromide]",cell death of EL-4 lymphoma cells undergoing PDT,"rapidly proceed to programmed cell death, apoptosis and/or necrosis"
